Read-outs that look alike come from different tables or passages of the source.

For one series, the system named is p53 in BxPC-3 and Calu-3. As to the kind of experiment: p53 expression. It is filed as cell-based, human. As for the experimental part:
In addition, p53 expression in cells exposed to the ADC was higher in both cell lines compared to SN-38 (not shown). […] In terms of later apoptotic events, cleavage of PARP was evident in both cell lines when incubated with either SN-38 or the conjugate (not shown). […] The higher degree of cleavage with free SN-38 over the ADC was consistent with the cytotoxicity findings.

A further series relates to Capan-1 xenografts. As to the kind of experiment: combined radioimmunotherapy and ADC, Capan-1 xenograft. It is filed as in vivo, nude mice. An excerpt:
The present study examined combinations of ^90Y-hPAM4 IgG with RS7-SN-38 in nude mice bearing 0.35 cm^3 subcutaneous xenografts of the human pancreatic cancer cell line, Capan-1. […] These studies provide the first evidence that combined radioimmunotherapy and ADC enhances efficacy at safe doses.

Series [1] addresses T1, Trop-2 on multiple cell lines (Homo sapiens, UniProt P09758).
T1 construct: endogenous in cells; host or cells: human solid tumour cell lines
T1 sequence (P09758 27-323): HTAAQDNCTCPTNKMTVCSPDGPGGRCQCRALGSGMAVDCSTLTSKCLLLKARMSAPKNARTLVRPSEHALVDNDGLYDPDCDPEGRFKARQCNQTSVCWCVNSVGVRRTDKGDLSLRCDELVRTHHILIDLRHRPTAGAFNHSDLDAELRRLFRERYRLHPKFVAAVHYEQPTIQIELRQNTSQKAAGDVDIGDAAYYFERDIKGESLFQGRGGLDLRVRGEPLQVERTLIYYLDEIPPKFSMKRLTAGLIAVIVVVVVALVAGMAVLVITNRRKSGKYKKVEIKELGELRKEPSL
As to the kind of experiment: in vitro cell binding. As for the experimental part:
LumiGLO Chemiluminescent Substrate System (KPL, Gaithersberg, Md.) was used to detect antibody binding to cells. Briefly, cells were plated into a 96 black-well, flat-clear-bottom plate overnight. Antibodies were serially diluted 1:2 and added in triplicate, yielding a concentration range from 0.03 to 66.7 nM. After incubating for 1 h at 4° C., the media was removed and the cells washed with fresh cold media followed by the addition of a 1:20,000 dilution of goat-antihuman horseradish peroxidase-conjugated secondary antibody (Jackson Immunoresearch, West Grove, Pa.) for 1 h at 4° C. The plates were again washed before the addition of the LumiGLO reagent. Plates were read for luminescence using an Envision plate reader (Perkin Elmer, Boston Mass.). Data were analyzed by non-linear regression to determine the equilibrium dissociation constant (KD). Statistical comparisons of KD-values were made with Prism GraphPad Software (v4.03) (Advanced Graphics Software, Inc.; Encinitas, Calif.) using an F-Test on the best-fit curves for the data. Significance was set at P<0.05.

The next series has as its system MDA-MB-468. As to the kind of experiment: ADCC, LDH-release assay. Particulars: 33.3 nM, E:T 50:1. The series is classed as cell-based, human. As for the experimental part: Briefly, target cells (MDA-MB-468, NIH:OVCAR-3, or BxPC-3) were plated at 1×10^4 cells/well in a 96-well, black, flat-bottom plate and incubated overnight. The next day, peripheral blood mononuclear effector cells (PBMCs) were freshly isolated from a donor and added to assigned wells on the reaction plate at an E:T ratio of 50:1. Acquisition of human PBMCs was done under the approval of the New England Institutional Review Board (Newton, Mass.). Test reagents were added to their assigned wells at a final concentration of 33.3 nM. One set of wells received ADCC assay medium alone for background control and another set of wells received cells alone plus TritonX100 for maximum cells lysis control. The plate was incubated for 4 h at 37° C. After 4 h, target cell lysis was assessed by a homogenous fluorometric LDH release assay (Cyto Tox-One Homogenous Membrane Integrity Assay; Promega, Cat. G7891).
The plates were read (544 nm-590 nm) using an Envision plate reader (PerkinElmer LAS, Inc.; Shelton, Conn.). Data were analyzed by Microsoft Excel. Percent specific lysis was calculated as follows: […]

A further series relates to BxPC-3. As to the kind of experiment: dsDNA breaks, γH2AX flow cytometry. The series is classed as cell-based, human. Particulars: 20 μg/ml for 30 min. As for the experimental part:
For drug activity testing, BxPC-3 cells were seeded in 6-well plates at 5×10^5 cells/well and held at 37° C. overnight. […] The following morning, cells were trypsinized briefly, spun down, stained with Fixable Viability Stain 450 (BD Biosciences, San Jose, Calif.), washed with 1% BSA-PBS, and then fixed in 4% formalin for 15 min, washed again and permeabilized in 0.15% Triton-X100 in PBS for another 15 min. After washing twice with 1% BSA-PBS, cells were incubated with mouse anti-γH2AX-AF488 (EMD Millipore Corporation, Temecula, Calif.) for 45 min at 4° C. The signal intensity of γH2AX was measured by flow cytometry using a BD FACSCanto (BD Biosciences, San Jose, Calif.).
(In general: Flow cytometry measures light scatter and fluorescence of single cells or particles in a stream.)

For series [2] the following is noted: mouse, in vivo, iv, 200 ug. The text has this: ELISA was utilized to determine serum concentrations of total hRS7 IgG by competing for the binding to an anti-hRS7 IgG idiotype antibody with a horseradish peroxidase conjugate of hRS7. […] Pharmacokinetic (PK) parameters were computed by noncompartmental analysis using Phoenix WinNonlin software (version 6.3; Pharsight Corp., Mountainview, Calif.).

Series [3] relates to triple-negative breast cancer. As to the kind of experiment: Phase I/II clinical trial of IMMU-132, TNBC. The series is classed as in vivo, human. An excerpt: […] […] Previous treatments included cyclophosphamide, doxorubicin, carboplatin, gemcitabine, capecitabine, eribulin, cisplatinum, anastrozole, vinorelbine, bevacizumab and tamoxifen. […] The median time to progression in this heavily pretreated population of TNBC patients was 9.4 months, with a range of 2.9 to 14.2 months to date. However, 72% of patients in the study were still ongoing treatment.

A further series relates to esophageal cancer. The series is described as follows: Phase I/II clinical trial of IMMU-132, esophageal. It is filed as in vivo, human.
Series [4] relates to p21^WAF1/Cip1 in MDA-MB-468. As to the kind of experiment: immunoblotting of apoptotic pathway. The conditions noted are these: by 48 h. The series is classed as cell-based, human. As for the experimental part:
Cells (2×10^6) were plated in 6-well plates overnight. […] Parental hRS7 was used as a control for the ADC.
(In general: In western blotting, separated proteins are transferred to a membrane and probed.)

Series [5] has as its system Capan-1 human pancreatic cancer xenografts. Particulars: 1 and 6 h.
The subject of series [6] is NCI-N87 human gastric tumors. As to the kind of experiment: NCI-N87 xenograft therapy (FIG. 23). The conditions noted are these: 0.35 mg twice weekly for four weeks.

As to hRS7 IgG, the “time to upregulation of p53” value in the series with p53 in BxPC-3 and Calu-3 was 48 h. The “anti-tumor activity of unconjugated antibody” value in the series on Capan-1 xenografts (given alone) is “Neither unconjugated hPAM4 nor hRS7 antibodies had anti-tumor activity when given alone”. Also, the KD result in [1] is recorded as “in the sub-nanomolar range”. For the same substance, the specific lysis with MDA-MB-468 is recorded as 29.8±2.6%. In addition, in the series with BxPC-3, the “Mean Fluorescence Intensity (γH2AX)” value is reported as 2297 ± 18 and the “Percent Positive (γH2AX)” value was 13.0 ± 0.6%. Besides, in [2], the “alpha half-life, hRS7 IgG” value is “approximately 3 h” and the “beta half-life, hRS7 IgG” value was about 200 h.

Regarding IMMU-132, the “time to upregulation of p53” value in the series on p53 in BxPC-3 and Calu-3 is at most 24 h. In [3] (10 mg/kg), the “confirmed complete responses (CR)” value was 2; the “partial responses (PR)” value worked out at 13; the “time to progression, range” value was in the range of 2.9 to 14.2 months. In addition, the “clinical benefit rate (PR+SD>6 months)” value in series [3] (17 TNBC patients) was 46%. Besides, in series [3] (of 8 assessable patients), the PD was determined as 2 and the PR amounted to 2. In the series with esophageal cancer (of 4 assessable patients), this substance had a PD of 1 and a PR of 1. For the same substance, the “duration of SD” value in the series on esophageal cancer (patient 25, 18 then 13.5 mg/kg) stood at 30 weeks. Besides, the “mice tumor-free after 20 weeks” value in the series on Capan-1 xenografts (ADC alone) was 1 of 10. In addition, in series [4], the “decrease of p21^WAF1/Cip1” value is 43%. Moreover, the KD entry in series [1] was “in the sub-nanomolar range”. In the series with MDA-MB-468, this substance came in with a specific lysis of 8.6±2.6%. For the same substance, in the series on BxPC-3, the “Mean Fluorescence Intensity (γH2AX)” value came to 5349 ± 234. In [2], the “MRT, carrier hRS7 antibody” value is given as about 300 h; the “alpha half-life, hRS7 IgG” value is on record as “approximately 3 h”; the “beta half-life, hRS7 IgG” value is given as about 200 h; the “half-life, intact conjugate” value is given as 11 h. Also, in the series with small cell lung cancer (of 4 assessable patients), the PD was 2 and the PR came to 2. The PR in the series with small cell lung cancer (out of 25 assessable patients, 8 or 10 mg/kg) was found to be 6. Moreover, in series [5], the “free SN-38G lower than free SN-38 in serum” value was 3- to 7 times. Also, the partial responders in series [6] was 6 of 7.

Values taken from patent US10954305B2 (Immunomedics, Inc., priority 2016, dated 2021).
